Measurements taken from US20050228016A1, “TETRAHYDROQUINOLINES FOR MODULATING THE EXPRESSION OF EXOGENOUS GENES VIA AN ECDYSONE RECEPTOR COMPLEX” (priority 2002, published 2005).

What was measured:
[1] = test system: CfEcR + LmUSP; conditions: CfEcR + LmUSP in 3T3 cells, reporter assayed 48 h after ligand
Experimental: 1.9—Gal4CfEcR-DEF/VP16LmRXR-EF: This construct was prepared in the same way as switch 1.1 except LmRXR-EF (SEQ ID NO: 18) was used in place of HsRXRβ-LmRXREF chimera.
To determine if any of the compounds shown in Table 1 and Table 2 can act as inducers of reporter gene activity in a transactivation assay, these compounds were tested in NIH3T3 cells transfected with pFRLUC reporter and gene expression cassettes, 1.1 to 1.8 described in Example 1. […] At 48 hr after adding ligand, the cells were harvested and reporter activity was assayed using Dual Luciferase assay kit (Promega carporation). Total relative light units (RLU) are shown. Standard methods for culture and maintenance of the cells were followed.
Transfections: DNAs corresponding to the various switch constructs outlined in Example I, specifically switches 1.1 through 1.8, were transfected into mouse NIH3T3 cells (ATCC) as follows. Cells were harvested when they reached 50% confluency and plated in 6-, 12- or 24-well plates at 125,000, 50,000, or 25,000 cells, respectively, in 2.5, 1.0, or 0.5 ml of growth medium containing 10% fetal bovine serum (FBS), respectively. The next day, the cells were rinsed with growth medium and transfected for four hours. […] For 12-well plates, 4 μl of Superfect™ was mixed with 100 μl of growth medium. 1.0 μg of reporter construct and 0.25 μg of each receptor construct of the receptor pair to be analyzed were added to the transfection mix. A second reporter construct was added [pTKRL (Promega), 0.1 μg/transfection mix] that comprises a Renilla luciferase gene operably linked and placed under the control of a thymidine kinase (TK) constitutive promoter and was used for normalization. The contents of the transfection mix were mixed in a vortex mixer and let stand at room temperature for 30 min. At the end of incubation, the transfection mix was added to the cells maintained in 400 μl growth medium. The cells were maintained at 37° C. and 5% CO2 for four hours. At the end of incubation, 500 μl of growth medium containing 20% FBS and either dimethylsulfoxide (DMSO; control) or a DMSO solution of 0.1, 1, and 10 μM ligand was added and the cells were maintained at 37° C. and 5% CO2 for 48 hours. The cells were harvested and reporter activity was assayed. The same procedure was followed for 6 and 24 well plates as well except all the reagents were doubled for 6 well plates and reduced to half for 24-well plates.
Ligands: All ligands were dissolved in DMSO and the final concentration of DMSO was maintained at 0.1% in both controls and treatments.
Reporter Assays: Cells were harvested 48 hours after adding ligands. 125, 250, or 500 μl of passive lysis buffer (part of Dual-luciferase™ reporter assay system from Promega Corporation) were added to each well of 24- or 12- or 6-well plates respectively. The plates were placed on a rotary shaker for 15 minutes. Twenty μl of lysate were assayed. Luciferase activity was measured using Dual-luciferase™ reporter assay system from Promega Corporation following the manufacturer's instructions.

[2] = target: T1, Gal4DBD/AaEcR (DEF) (Aedes aegypti, UniProt P49880); experiment: cell-based; type: cell-based; conditions: 33 μM; 3T3 cells; 48 h; average of two wells
T1 construct: The wildtype D, E, and F domains from mosquito Aedes aegypti EcR; expressed in transfected cells; host or cells: 3T3 cells
In short: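 Single-dose ligand testing at 33 μM, applied in serum medium after 4 h transfection. Host was 3T3 cells carrying Gal4DBD/AaEcR (DEF) plus a 5× GAL4 RE-driven firefly luciferase reporter (pFRLuc).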

[3] = target: T2, GAL4AaEcR-DEF/VP16HsRXRβ-EF (Aedes aegypti, UniProt P49880); experiment: Transactivation reporter assay, AaEcR based switch (1.4) in NIH3T3 cells; type: cell-based; conditions: mammalian cells; FIGS. 2-5
T2 construct: expressed in transfected cells; host or cells: mouse NIH3T3 cells
T2 sequence (P49880 405-776 limits assumed): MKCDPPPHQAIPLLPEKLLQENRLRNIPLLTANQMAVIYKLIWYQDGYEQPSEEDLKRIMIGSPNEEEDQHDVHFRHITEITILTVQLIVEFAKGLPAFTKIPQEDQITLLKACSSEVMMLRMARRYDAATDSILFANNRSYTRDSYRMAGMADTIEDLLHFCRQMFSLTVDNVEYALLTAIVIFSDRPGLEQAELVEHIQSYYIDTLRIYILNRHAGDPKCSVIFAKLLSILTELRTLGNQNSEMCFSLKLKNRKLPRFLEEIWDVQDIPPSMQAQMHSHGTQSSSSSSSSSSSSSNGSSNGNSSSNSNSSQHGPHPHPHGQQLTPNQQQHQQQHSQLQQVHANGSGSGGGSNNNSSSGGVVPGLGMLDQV
T2 sequence (P28702 299-533 partner limits assumed): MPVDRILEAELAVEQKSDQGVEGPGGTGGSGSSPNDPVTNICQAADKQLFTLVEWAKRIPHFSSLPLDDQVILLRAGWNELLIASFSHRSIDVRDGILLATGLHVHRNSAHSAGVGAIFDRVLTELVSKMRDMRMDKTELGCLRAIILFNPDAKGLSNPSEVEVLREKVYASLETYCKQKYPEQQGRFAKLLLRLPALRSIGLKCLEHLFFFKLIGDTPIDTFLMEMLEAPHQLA
Experimental: Total relative light units (RLU) are shown.
Twenty μl of lysate were assayed.

C[C@H]1C[C@H](Nc2ccc(F)cc2)c2cc(F)ccc2N1C(=O)c1ccc(F)c(C(F)(F)F)c1 (relative stereo) [Compound I-5]
Fold Induction (10 μM) [1]: 69 fold
Fold Induction Average, AA_3T3V1 Assay 33 μM [2]: 366 fold
Activity on AaEcR based switches [3]: very active
